Source: ChEMBL document CHEMBL1152072, “Synthesis and structure-activity relationships of novel antiseptics” (1997)

Legend:
Format in all cases: functional
Escherichia coli [1] = test: Antibacterial activity against Escherichia coli after 3 mins.
Pseudomonas aeruginosa [2] = test: Antibacterial activity against Pseudomonas aeruginosa ATCC 10145 after 3 mins.
Staphylococcus aureus [3] = test: Antibacterial activity against Staphylococcus aureus after 3 mins.
Burkholderia cepacia = test: Antibacterial activity against Burkholderia cepacia 10 after 3 mins.
Staphylococcus aureus [4] = test: Antibacterial activity against methicillin-resistant Staphylococcus aureus 57 after 3 mins.
Enterococcus faecalis [5] = test: Antibacterial activity against Enterococcus faecalis IFO 12580
Escherichia coli [6] = test: Antibacterial activity against Escherichia coli NIHJ JC-2,after 30 seconds
Pseudomonas aeruginosa [7] = test: Antibacterial activity against Pseudomonas aeruginosa ATCC 10145 after 30 seconds
Serratia marcescens [8] = test: Antibacterial activity against Serratia marcescens IFO 12648,after 30 seconds
Staphylococcus aureus [9] = test: Antibacterial activity against Staphylococcus aureus after 30 seconds
[10] = tested on: Staphylococcus epidermidis; test: Antibacterial activity against Staphylococcus epidermidis ATCC 12228 after 30 seconds
Enterococcus faecalis [11] = test: Antibacterial activity against Enterococcus faecalis IFO 12580 after 30 seconds
Escherichia coli [12] = test: Antibacterial activity against Escherichia coil NIHJ JC-2 after 30 seconds
Serratia marcescens [13] = test: Antibacterial activity against Serratia marcescens IFO 12648 after 30 seconds
Staphylococcus aureus [14] = test: Antibacterial activity against Staphylococcus aureus FDA 209P after 30 seconds

Row | Compound | Activity (Escherichia coli [1]) | Activity (Pseudomonas aeruginosa [2]) | Activity (Staphylococcus aureus [3]) | Activity (Burkholderia cepacia) | also measured
1 | Cl.N=C(NCc1ccc(Cl)c(Cl)c1)NC(=N)Nc1ccc(Cl)c(Cl)c1 | 10 µg/mL | 10 µg/mL | 50 µg/mL | – | –
2 | CCCCCC/N=C(N)/N=C(\N)Nc1ccc(Cl)cc1.Cl | 100 µg/mL | 20 µg/mL | 500 µg/mL | 100 µg/mL | –
3 | Cl.N=C(NCc1ccc(Cl)c(Cl)c1)NC(=N)Nc1ccc(Cl)cc1Cl | <=10 ug ml-1 | <=10 ug ml-1 | 20 µg/mL | <=10 ug ml-1 | –
4 | CCCCCCCCCC/N=C(N)/N=C(\N)NCc1ccc(Cl)c(Cl)c1.Cl | <=10 ug ml-1 | 100 µg/mL | 50 µg/mL | 100 µg/mL | –
5 | Cl.N=C(NCc1ccc(Cl)c(Cl)c1)NC(=N)Nc1ccc(Cl)cc1 | 50 µg/mL | 50 µg/mL | 50 µg/mL | – | Activity (Staphylococcus aureus [4]): 100 µg/mL
6 | N=C(NCCCCCCNC(=N)NC(=N)Nc1ccc(Cl)cc1)NC(=N)Nc1ccc(Cl)cc1 [CHLORHEXIDINE] | 20 µg/mL | 100 µg/mL | 100 µg/mL | >500 µg/mL | Activity (Enterococcus faecalis [5]): >160 µg/mL; Activity (Escherichia coli [6]): 80 µg/mL; Activity (Pseudomonas aeruginosa [7]): 160 µg/mL; Activity (Serratia marcescens [8]): 40 µg/mL; Activity (Staphylococcus aureus [9]): >160 µg/mL; Activity [10]: 40 µg/mL
7 | Cc1ccc(NC(=N)/N=C(\N)NCc2ccc(Cl)c(Cl)c2)cc1C.Cl | <=10 ug ml-1 | <=10 ug ml-1 | 20 µg/mL | 20 µg/mL | –
8 | Cl.N=C(NCc1ccc(Cl)c(Cl)c1)NC(=N)Nc1ccc(Cl)c(Cl)c1Cl | <=10 ug ml-1 | <=10 ug ml-1 | <=10 ug ml-1 | <=10 ug ml-1 | –
9 | CCCCCC/N=C(N)/N=C(\N)NCc1ccc(Cl)c(Cl)c1.Cl | 50 µg/mL | 50 µg/mL | 50 µg/mL | 100 µg/mL | –
10 | CCCCCCCC/N=C(N)/N=C(\N)NCc1ccc(Cl)c(Cl)c1.Cl | <=10 ug ml-1 | <=10 ug ml-1 | <=10 ug ml-1 | <=10 ug ml-1 | Activity (Enterococcus faecalis [11]): 10 µg/mL; Activity (Escherichia coli [12]): 20 µg/mL; Activity (Pseudomonas aeruginosa [7]): 10 µg/mL; Activity (Serratia marcescens [13]): 20 µg/mL; Activity (Staphylococcus aureus [14]): 20 µg/mL; Activity [10]: 5 µg/mL
11 | Cl.N=C(NCc1ccc(Cl)c(Cl)c1)NC(=N)Nc1ccc(Br)cc1 | <=10 ug ml-1 | 20 µg/mL | 20 µg/mL | 20 µg/mL | –
12 | CCCCCC/N=C(N)/N=C(\N)Nc1ccc(Cl)c(Cl)c1.Cl | 20 µg/mL | 20 µg/mL | 100 µg/mL | 20 µg/mL | –
13 | CCCCCCCC/N=C(N)/N=C(\N)Nc1ccc(Cl)c(Cl)c1.Cl | 50 µg/mL | 50 µg/mL | 50 µg/mL | – | –
14 | CCCCCCCCCC/N=C(N)/N=C(\N)Nc1ccc(Cl)c(Cl)c1.Cl | 20 µg/mL | 100 µg/mL | 100 µg/mL | 100 µg/mL | –
15 | CCCCCCCCCCCC/N=C(N)/N=C(\N)Nc1ccc(Cl)c(Cl)c1.Cl | 20 µg/mL | 20 µg/mL | 100 µg/mL | >500 µg/mL | –
16 | CCCCCCCCCCCC/N=C(N)/N=C(\N)NCc1ccc(Cl)c(Cl)c1.Cl | 20 µg/mL | 100 µg/mL | 100 µg/mL | >500 µg/mL | –
17 | Cl.N=C(NCc1ccc(Cl)c(Cl)c1)NC(=N)Nc1ccc(I)cc1 | <=10 ug ml-1 | <=10 ug ml-1 | 20 µg/mL | <=10 ug ml-1 | –
18 | CCCCCC/N=C(N)/N=C(\N)NCc1ccc(Cl)cc1.Cl | 100 µg/mL | 50 µg/mL | >100 µg/mL | 100 µg/mL | –
